Target: T1, Catenin beta-1 (Homo sapiens, UniProt P35222)
T1 sequence (P35222 whole entry): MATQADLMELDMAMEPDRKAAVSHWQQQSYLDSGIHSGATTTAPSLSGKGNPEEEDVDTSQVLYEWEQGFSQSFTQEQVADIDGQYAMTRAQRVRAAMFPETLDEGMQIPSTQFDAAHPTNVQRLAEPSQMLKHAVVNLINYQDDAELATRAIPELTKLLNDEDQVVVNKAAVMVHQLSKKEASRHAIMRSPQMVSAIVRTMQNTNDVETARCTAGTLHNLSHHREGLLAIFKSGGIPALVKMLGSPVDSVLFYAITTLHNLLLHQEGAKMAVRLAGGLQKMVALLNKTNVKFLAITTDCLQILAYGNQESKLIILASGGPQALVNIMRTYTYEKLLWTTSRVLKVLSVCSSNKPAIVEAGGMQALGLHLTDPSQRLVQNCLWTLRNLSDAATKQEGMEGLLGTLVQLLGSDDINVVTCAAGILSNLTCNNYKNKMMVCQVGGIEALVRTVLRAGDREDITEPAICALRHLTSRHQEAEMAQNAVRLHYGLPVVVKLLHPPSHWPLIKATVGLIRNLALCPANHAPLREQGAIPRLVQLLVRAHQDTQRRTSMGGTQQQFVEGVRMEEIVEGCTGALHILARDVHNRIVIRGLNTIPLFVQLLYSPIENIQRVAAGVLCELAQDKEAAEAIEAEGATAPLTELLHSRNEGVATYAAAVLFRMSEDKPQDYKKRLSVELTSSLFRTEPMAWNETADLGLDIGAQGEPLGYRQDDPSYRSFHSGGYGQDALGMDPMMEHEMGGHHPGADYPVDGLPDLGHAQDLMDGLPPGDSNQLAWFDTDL
Experiment: Inhibition of His6-tagged human beta-Catenin (138 to 686 residues)/biotinylated human BCL9 (350 to 375 residues) protein-protein interaction assessed as inhibition constant by AlphaScreen competitive assay

Question: Which Ki does the source give for `O=C(Nc1ccc(O[C@H]2CCNC2)c(-c2ccc(F)cc2)c1)c1ccc(O[C@H]2CCNC2)c(-c2ccc(F)c(F)c2)c1` here?
Answer: 2100 nM
